{
  "source": "ChEMBL document CHEMBL3853315",
  "about": "“Targeting the Translesion Synthesis Pathway for the Development of Anti-Cancer Chemotherapeutics” (J Med Chem, 2016)",
  "key": {"[1]": {"test": "Growth inhibition of human MDA-MB-231 cells after 72 hrs by MTT assay", "type": "functional", "details": "MDA-MB-231, 72 h"}, "[2]": {"molecular_target": "Ubiquitin carboxyl-terminal hydrolase 1/WD repeat-containing protein 48 (Homo sapiens, UniProt O94782)", "sequence (O94782 whole entry)": "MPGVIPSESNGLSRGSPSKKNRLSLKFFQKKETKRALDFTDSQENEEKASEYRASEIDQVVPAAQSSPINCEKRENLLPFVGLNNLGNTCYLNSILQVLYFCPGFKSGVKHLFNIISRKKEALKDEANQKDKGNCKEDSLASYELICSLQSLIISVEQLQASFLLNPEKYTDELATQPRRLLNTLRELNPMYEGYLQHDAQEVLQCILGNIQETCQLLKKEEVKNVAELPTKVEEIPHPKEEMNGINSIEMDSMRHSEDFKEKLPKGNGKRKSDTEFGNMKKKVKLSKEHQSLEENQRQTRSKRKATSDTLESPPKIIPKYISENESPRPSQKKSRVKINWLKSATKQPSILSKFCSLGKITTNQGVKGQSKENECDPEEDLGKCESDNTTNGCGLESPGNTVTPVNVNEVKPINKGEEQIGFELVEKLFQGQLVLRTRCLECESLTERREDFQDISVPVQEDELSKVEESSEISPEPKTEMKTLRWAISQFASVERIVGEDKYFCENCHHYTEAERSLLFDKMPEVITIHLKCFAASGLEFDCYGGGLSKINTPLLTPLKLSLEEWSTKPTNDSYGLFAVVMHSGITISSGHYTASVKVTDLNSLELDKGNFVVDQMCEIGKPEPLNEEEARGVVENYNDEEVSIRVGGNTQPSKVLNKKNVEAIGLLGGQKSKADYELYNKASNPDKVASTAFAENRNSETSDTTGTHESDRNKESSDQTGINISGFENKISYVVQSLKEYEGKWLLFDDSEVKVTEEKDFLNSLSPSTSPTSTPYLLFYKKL", "sequence (Q8TAF3 whole entry, further chain)": "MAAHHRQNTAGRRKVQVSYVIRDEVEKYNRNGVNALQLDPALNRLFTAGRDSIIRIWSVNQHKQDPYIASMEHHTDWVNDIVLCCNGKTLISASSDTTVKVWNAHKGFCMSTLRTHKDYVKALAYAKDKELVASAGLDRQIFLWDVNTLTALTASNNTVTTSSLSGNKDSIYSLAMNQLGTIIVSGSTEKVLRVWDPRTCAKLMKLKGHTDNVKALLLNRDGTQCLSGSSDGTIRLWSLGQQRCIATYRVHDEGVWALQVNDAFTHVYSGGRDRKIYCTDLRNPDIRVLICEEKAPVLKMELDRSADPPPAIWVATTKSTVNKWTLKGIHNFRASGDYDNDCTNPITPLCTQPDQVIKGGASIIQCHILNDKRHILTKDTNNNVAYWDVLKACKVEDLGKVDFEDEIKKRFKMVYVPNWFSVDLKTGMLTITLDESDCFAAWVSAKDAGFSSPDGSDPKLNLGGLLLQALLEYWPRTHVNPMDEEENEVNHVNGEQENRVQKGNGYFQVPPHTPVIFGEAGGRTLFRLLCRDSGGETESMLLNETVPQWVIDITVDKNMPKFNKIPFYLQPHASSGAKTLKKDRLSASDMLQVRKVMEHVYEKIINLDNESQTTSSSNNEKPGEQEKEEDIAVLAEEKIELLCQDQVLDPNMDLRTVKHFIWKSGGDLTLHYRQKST", "test": "Inhibition of human USP1/UAF1 complex using Ub-Rho as substrate preincubated for 30 mins followed by substrate addition by fluorescence-based HTS assay", "type": "protein-complex assay"}, "[3]": {"molecular_target": "T1, Ubiquitin carboxyl-terminal hydrolase 1/WD repeat-containing protein 48 (Homo sapiens, UniProt O94782+Q8TAF3)", "T1 sequence (O94782 whole entry)": "as the sequence (O94782 whole entry) above", "T1 sequence (Q8TAF3 whole entry)": "as the sequence (Q8TAF3 whole entry, further chain) above", "test": "Inhibition of USP1/UAF1 complex in human H596 cells assessed as potentiation of cisplatin-induced cell killing by measuring cisplatin GI50 at 1:4 cisplatin to compound ratio pretreated for 48 hrs followed by addition of fresh growth medium measured after 5 to 10 days by colony forming assay (reference value: 486 nM)", "type": "cell-based"}, "[4]": {"molecular_target": "T1, Ubiquitin carboxyl-terminal hydrolase 1/WD repeat-containing protein 48", "test": "Inhibition of USP1/UAF1 complex in HEK293T cells assessed as decrease in ability of DNA polymerase eta to bypass UV-induced DNA lesions after 24 hrs by strand specific PCR-based competitive replication and adduct bypass assay", "type": "cell-based", "details": "HEK-293T, concentration not given here"}, "DNA polymerase eta": {"molecular_target": "T2, DNA polymerase eta (Homo sapiens, UniProt Q9Y253)", "T2 sequence (Q9Y253 whole entry)": "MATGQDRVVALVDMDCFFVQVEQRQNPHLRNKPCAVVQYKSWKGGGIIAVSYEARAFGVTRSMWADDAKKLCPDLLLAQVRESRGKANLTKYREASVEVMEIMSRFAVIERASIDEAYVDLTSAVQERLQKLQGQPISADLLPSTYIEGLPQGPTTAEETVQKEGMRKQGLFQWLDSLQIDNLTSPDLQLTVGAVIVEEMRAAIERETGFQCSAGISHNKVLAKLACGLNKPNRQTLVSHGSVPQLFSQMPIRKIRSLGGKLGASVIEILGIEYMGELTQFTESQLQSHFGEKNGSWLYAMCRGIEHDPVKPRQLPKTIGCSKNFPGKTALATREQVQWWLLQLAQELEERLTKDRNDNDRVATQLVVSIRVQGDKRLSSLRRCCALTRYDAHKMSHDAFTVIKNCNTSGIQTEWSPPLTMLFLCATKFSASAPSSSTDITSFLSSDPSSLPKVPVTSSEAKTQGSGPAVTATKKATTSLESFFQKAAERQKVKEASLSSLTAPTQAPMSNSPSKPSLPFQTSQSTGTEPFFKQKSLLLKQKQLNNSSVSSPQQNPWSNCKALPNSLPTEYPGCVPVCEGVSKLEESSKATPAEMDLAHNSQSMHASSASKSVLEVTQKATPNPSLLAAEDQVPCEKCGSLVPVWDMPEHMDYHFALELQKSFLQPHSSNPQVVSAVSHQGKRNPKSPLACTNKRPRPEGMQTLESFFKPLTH", "test": "Inhibition of human recombinant DNA polymerase eta expressed in Baculovirus expression system using TAMRA/BHQ-2-labeled primer/template measured at 2 to 6 mins by reporter-strand displacement assay"}, "DNA polymerase iota": {"molecular_target": "T3, DNA polymerase iota (Homo sapiens, UniProt Q9UNA4)", "T3 sequence (Q9UNA4 whole entry)": "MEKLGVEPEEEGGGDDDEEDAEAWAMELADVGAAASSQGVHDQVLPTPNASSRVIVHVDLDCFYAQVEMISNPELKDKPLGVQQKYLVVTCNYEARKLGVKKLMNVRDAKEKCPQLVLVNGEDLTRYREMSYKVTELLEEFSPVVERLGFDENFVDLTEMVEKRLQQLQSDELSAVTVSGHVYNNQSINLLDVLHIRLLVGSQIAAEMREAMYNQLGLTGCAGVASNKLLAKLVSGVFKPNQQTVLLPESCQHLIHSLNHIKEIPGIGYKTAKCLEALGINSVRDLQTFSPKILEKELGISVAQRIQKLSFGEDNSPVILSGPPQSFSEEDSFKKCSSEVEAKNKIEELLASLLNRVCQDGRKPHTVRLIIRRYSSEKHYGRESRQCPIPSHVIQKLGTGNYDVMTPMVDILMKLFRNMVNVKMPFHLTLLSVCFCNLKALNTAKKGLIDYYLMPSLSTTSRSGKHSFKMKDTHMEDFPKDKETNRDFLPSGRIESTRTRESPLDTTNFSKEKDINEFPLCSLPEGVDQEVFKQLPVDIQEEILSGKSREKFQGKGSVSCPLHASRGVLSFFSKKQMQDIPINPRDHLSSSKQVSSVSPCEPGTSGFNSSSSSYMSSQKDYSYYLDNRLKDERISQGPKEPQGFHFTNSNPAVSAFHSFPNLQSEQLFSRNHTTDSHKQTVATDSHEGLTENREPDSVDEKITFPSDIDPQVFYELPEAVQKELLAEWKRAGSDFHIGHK", "test": "Inhibition of human recombinant DNA polymerase iota expressed in Baculovirus expression system using TAMRA/BHQ-2-labeled primer/template measured at 2 to 6 mins by reporter-strand displacement assay"}, "DNA polymerase kappa": {"molecular_target": "T4, DNA polymerase kappa (Homo sapiens, UniProt Q9UBT6)", "T4 sequence (Q9UBT6 whole entry)": "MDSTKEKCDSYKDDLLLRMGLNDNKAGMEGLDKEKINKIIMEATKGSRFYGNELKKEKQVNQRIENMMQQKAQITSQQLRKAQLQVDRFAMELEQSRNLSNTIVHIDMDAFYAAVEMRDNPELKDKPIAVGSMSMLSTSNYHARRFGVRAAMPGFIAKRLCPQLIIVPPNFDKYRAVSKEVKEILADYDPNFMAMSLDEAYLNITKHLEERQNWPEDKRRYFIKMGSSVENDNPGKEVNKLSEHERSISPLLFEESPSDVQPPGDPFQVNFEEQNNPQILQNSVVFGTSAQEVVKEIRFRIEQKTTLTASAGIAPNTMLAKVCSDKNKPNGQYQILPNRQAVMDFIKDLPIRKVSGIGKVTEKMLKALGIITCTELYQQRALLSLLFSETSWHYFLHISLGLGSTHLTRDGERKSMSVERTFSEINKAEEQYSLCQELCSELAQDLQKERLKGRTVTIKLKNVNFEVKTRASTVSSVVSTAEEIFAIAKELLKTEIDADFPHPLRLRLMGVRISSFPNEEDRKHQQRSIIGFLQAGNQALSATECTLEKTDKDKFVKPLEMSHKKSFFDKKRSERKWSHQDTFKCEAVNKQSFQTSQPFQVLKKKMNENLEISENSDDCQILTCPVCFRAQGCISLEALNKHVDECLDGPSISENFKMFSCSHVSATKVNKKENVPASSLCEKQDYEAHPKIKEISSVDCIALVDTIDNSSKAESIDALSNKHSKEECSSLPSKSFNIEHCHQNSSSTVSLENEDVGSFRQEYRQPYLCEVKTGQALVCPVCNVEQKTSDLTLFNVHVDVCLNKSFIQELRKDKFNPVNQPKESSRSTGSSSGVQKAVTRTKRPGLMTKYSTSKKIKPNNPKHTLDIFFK", "test": "Inhibition of human DNA polymerase kappa (19 to 526 residues)-mediated TLS past acrolein derived ring-opened reduced form of gamma-HOPdG lesions preincubated for 15 mins followed by DNA substrate addition measured after 30 mins in presence of dCTP and dGTP by radioactive gel-based primer extension assay"}, "[5]": {"molecular_target": "T1, Ubiquitin carboxyl-terminal hydrolase 1/WD repeat-containing protein 48", "test": "Inhibition of human USP1/UAF1 complex using Ub-Rho as substrate by qHTS assay", "type": "protein-complex assay"}},
  "data": [
    {"molecule": "Nc1nc(COC(=O)c2ccc([N+](=O)[O-])cc2)nc(Nc2ccccc2)n1", "values": [
      {"measurement": "GI50", "setting": "[1]", "value": 10000, "unit": "nM"}
    ]},
    {"molecule": "Cc1ccc(Nc2nc(N)nc(COC(=O)c3ccc([N+](=O)[O-])cc3)n2)cc1", "values": [
      {"measurement": "GI50", "setting": "[1]", "value": 10000, "unit": "nM"}
    ]},
    {"molecule": "O=C1c2ccccc2C(=O)C2OC(c3ccc(F)cc3)=NC12", "note": "(centres undefined)", "values": [
      {"measurement": "IC50", "setting": "[2]", "value": 880, "unit": "nM"}
    ]},
    {"molecule": "Cc1cnc(-c2ccccc2C(C)C)nc1NCc1ccc(-n2ccnn2)cc1", "values": [
      {"measurement": "GI50", "setting": "[3]", "value": 59, "unit": "nM"},
      {"measurement": "inhibition", "setting": "[4]", "value": 31, "unit": "%"}
    ]},
    {"molecule": "O=C(O)C1=CC(=C(c2ccc(O)c(C(=O)O)c2)c2ccc(O)c(C(=O)O)c2)C=CC1=O", "note": "[AURINTRICARBOXYLIC ACID]", "values": [
      {"measurement": "IC50", "setting": "DNA polymerase eta", "value": 75, "unit": "nM"},
      {"measurement": "IC50", "setting": "DNA polymerase iota", "value": 75, "unit": "nM"}
    ]},
    {"molecule": "CCOc1nc2cccc(C(=O)OC(C)OC(=O)OC3CCCCC3)c2n1Cc1ccc(-c2ccccc2-c2nnn[nH]2)cc1", "note": "(centres undefined) [CANDESARTAN CILEXETIL]", "values": [
      {"measurement": "IC50", "setting": "DNA polymerase kappa", "value": 5600, "unit": "nM"}
    ]},
    {"molecule": "O=c1oc2c(O)c(O)cc3c(=O)oc4c(O)c(O)cc1c4c23", "note": "[ELLAGIC ACID]", "values": [
      {"measurement": "IC50", "setting": "DNA polymerase eta", "value": 62, "unit": "nM"},
      {"measurement": "IC50", "setting": "DNA polymerase iota", "value": 62, "unit": "nM"}
    ]},
    {"molecule": "CC(C)(Sc1ccc(CCN(CCCCC2CCCCC2)C(=O)NC2CCCCC2)cc1)C(=O)O", "note": "[GW7647]", "values": [
      {"measurement": "IC50", "setting": "[5]", "value": 5000, "unit": "nM"}
    ]},
    {"molecule": "O=c1[nH]c2ccccc2n1C1CCN(CCCC(c2ccc(F)cc2)c2ccc(F)cc2)CC1", "note": "[PIMOZIDE]", "values": [
      {"measurement": "IC50", "setting": "[5]", "value": 2000, "unit": "nM"}
    ]},
    {"molecule": "CC(=O)c1c(O)c(C)c(O)c(Cc2c(O)c3c(c(C(=O)/C=C/c4ccccc4)c2O)OC(C)(C)C=C3)c1O", "note": "[ROTTLERIN]", "values": [
      {"measurement": "IC50", "setting": "[5]", "value": 8000, "unit": "nM"}
    ]},
    {"molecule": "CN1CCN(CCCN2c3ccccc3Sc3ccc(C(F)(F)F)cc32)CC1", "note": "[TRIFLUOPERAZINE]", "values": [
      {"measurement": "IC50", "setting": "[5]", "value": 8000, "unit": "nM"}
    ]}
  ]
}
